In patent publication US20130137728A1, “Compositions and Methods for the Treatment of Degenerative Diseases” (MUSC Foundation For Research And Development, priority 2010, published 2013):
Entries after “also recorded” stand apart in the source; their conditions may differ. Non-standard residues stand in square brackets, D forms with d. Residues, ends and D or L forms follow the SMILES beside them. Nle = CCCC[C@H](N)C(=O)O

Key:
[1] = Viability of stressor-treated cells by dye exclusion 24 h after treatment; format: cell-based; conditions: mouse; 661W cells; 1 μM A23187; incubated 24 h; ethidium bromide/acridine orange
Protocol: (§1) 28. FIG. 17. Calcium and oxidative stress attenuate mitochondrial capacity. Shown are 661W cell OCR responses to 1 μM FCCP after treatment with listed concentrations of (A) A23187 and (B) tBuOOH. In A OCR rates are given as pmol/min, in B the rates for each well have been normalized to the basal rates measured prior to FCCP (which standardizes comparisons between data measured on different days). 661W cells analyzed by XF24 were incubated for 24 h and viability determined using ethidium bromide/acridine orange. Images of cells treated with (C) 1 μM A23187 and (D) control represent 47% and >95% viability.
269. The cells were then returned to the incubator and analyzed for cell viability via dye exclusion 24 h after treatment (FIGS. 17C,D). […] In addition, the higher concentrations produced profound changes in metabolic phenotype as evidenced in the cell's responses to the uncoupler FFCP. […] In both cases, reduced OCR and ECAR values are predictive of cell death although at intermediate concentrations, where cell death is still occurring, the ECAR rates actually increase, particularly for tBuOOH treatments.

[2] = tested on: 661W cells; experiment: XF24 assay of stressor effects on respiratory capacity (OCR, FCCP response); format: cell-based, mouse; conditions: for mitochondrial capacity measured from the FCCP response: 30 min after treatment; for respiratory / mitochondrial capacity (FCCP-uncoupled OCR): IBMX 1.0 mM in FIG. 19
Protocol: as §1
30. FIG. 19. Mild calcium or oxidative stress reduces metabolic capacity in a photoreceptor cell line. (Calcium stress, left panel) 661W cells were treated with vehicle control (dark blue) or 1.0 mM IBMX (turquoise), followed by treatment with 1 μM FCCP. […] (Oxidant stress, right panel)
(§2) 257. As shown in FIG. 1 and FIG. 2 below, compounds CB11, CB11a, CB11b, CB11c, CB11d and IBMX (see FIG. 1); compounds CB12, CB12a, CB12b, CB12c, CB12d and IBMX (see FIG. 2) were tested against the calcium-induced mitochondrial damage assay. IBMX is a membrane-permeable inhibitor of β-phosphodiesterase which results in a buildup of cGMP. An excess of cGMP increases the number of cGMP-gated cation channels in an open configuration, allowing an influx of Ca2+ into the cell, leading to mitochondrial damage and eventual cell death.
268. In preliminary experiments the energy metabolism of 661W cells using the XF24. 661W cells were analyzed and produce large amounts of lactic acid from glucose oxidation [Winkler B S, Starnes C A, Sauer M W, Firouzgan Z, Chen S C: Cultured retinal neuronal cells and Muller cells both show net production of lactate. Neurochem Int 2004, 45(2-3):311-320]. […] To examine whether the metabolic responses were predictive of cell death due to calcium or oxidant stress, the cells were exposed to calcium ionophore A23187 or the oxidant tert-butylhydroperoxide (tBuOOH) on the XF24 instrument for 30 min after which some of the treated cells were exposed to the protonophore FCCP to uncouple the mitochondrial membrane potential. The uncoupling attenuates ATP production and causes the mitochondria to dramatically increase oxygen consumption in an attempt to recover the lost ATP production capacity. The increase in oxygen consumption is a measure of the total mitochondrial capacity or reserve.
271. In preliminary studies, the direct oxidant tert-butylhydroperoxide (tBuOOH) was used to induce oxidant stress and the agent A23187, a calcium ionophore that binds to and carries Ca^2+ across cellular membranes, including mitochondrial membranes (Abbott, B. J., Fukuda, D. S., Dorman, D. E., Occolowitz, J. L., Debono, M., and Farhner, L. (1979) Antimicrob. Agents Chemother. 16(6), 808-812). Because A23187 rapidly increases intracellular and intra-mitochondrial calcium concentrations, it triggers Ca^2+-mediated programmed cell death (2. Orrenius, S., Zhivotovsky, B., and Nicotera, P. (2003) Nat. Rev. Mol. Cell. Biol. 4, 552-565; Hajnóczky, G., Davies, E., and Madesh, M. (2003) Biochem. Biophys. Res. Commun. 304, 445-454). One could argue that these two agents are akin to hammers rather than the more subtle, chronic oxidant and calcium stressors seen in degenerative processes. The XF24 assay was validated using two more physiologically relevant stressors. To induce calcium stress, 3-Isobutyl-1-methyl xanthine (IBMX), a non-selective phosphodiesterase (PDE) inhibitor was used (4. Zhang, X., Feng, Q., and Cote, R. H. (2005) Invest. Ophthalmol. Vis. Sci. 46(9), 3060-3066). Inhibition of PDEs causes increases in the intracellular cAMP and cGMP concentrations leading to slow activation cGMP-gated cation channels and an increase of Ca^2+ flux into the cell (5. Yarfitz, S., and Hurley, J. B. (1994) J. Biol. Chem. 269(20), 14329-14332; Koutalos, Y., and Yau, K.-W. (1996) Trends Neurosci. 19, 73-81). […]

[3] = tested on: 661W cells; experiment: Calcium-induced mitochondrial damage assay (IBMX, OCR on Seahorse XF24); format: cell-based, mouse; conditions: pretreatment with 1 μM for 1 h prior to addition of IBMX
Protocol: 32. FIG. 21. Secondary screening of neuroprotective agents discovered from library screening. The 661W cells were pretreated for 1 h with lead compounds, CB10-CB12 (1 μM), prior to treatment with 600 μM IBMX. The basal and uncoupled OCR rates were measured.
as §2
274. […] A higher stringency for hit selection than is commonly used was performed to avoid the less productive process of filtering through a large number of poor leads. It is notable that the complete ChemBridge library contains over 700,000 molecules that are searchable based on chemical structure, physicochemical properties, etc. To identify the active species present in the initial pool of 12 compounds were screened and then chemical similarity searches on the larger 700,000 member library was performed to identify other molecules that define pharmacophores. This strategy has more efficiently lead to agents that block retinal degeneration. Also, this strategy enabled quick identification of a small number of agents that that were moved into more sophisticated cellular and physiological models so as to better validate the mechanisms. For example, in the high-throughput screen a very toxic, non-specific calcium ionophore assay was used which gives a rather broad readout of cell “viability”. In the secondary assays the specificity and stringency were increased via use of more specific calcium stressor, 3-isobutyl-1-methylxanthine (IBMX) and a more relevant metabolic read-out, loss of respiratory capacity as measured from the attenuation of the uncoupled respiratory rate as measured with the Seahorse instrument. This assay format was used to evaluate the 12 initial lead compounds and are pleased to report that several of these agents do indeed protect against loss in respiratory capacity due to IBMX exposure.

[4] = tested on: 661W cells; experiment: A23187 viability screen (MTS assay); format: cell-based, mouse; conditions: 50 μM, 1 μM A23187, 24 hours
Source text: 273. ChemBridge, Inc. has a large (>700,000) commercially available chemical library and a DIVERSet library was obtained, which is a subset of compounds selected for diversity and favorable drug-like properties. Because the DIVERSet library is much too large for lower throughput, high-content screens, single end-point assays amenable to high-throughput were developed and disclosed herein. […] A viability assay using treatments with A23187 to search for molecules in the library that protect from acute calcium toxicity was developed and disclosed herein. The concentration of A23187 was selected to give about 50% death and pools that protected against death were identified. The assay format was optimized and validated using calpeptin, a […] as a positive control. In brief, 661W cells were maintained in DMEM supplemented with 10% FBS. For the assay, 100 μL of 70,000 cells/mL cells were seeded into each well of 96 well plates using DMEM supplemented with 5% FBS. Cells were then allowed to grow to confluency for 48 hours. Library compounds were added in 2 μL containing 10 compounds at 20 μM each. Ionophore A23187 was then added in 1 μL for a final concentration of 1 μM and after 24 hours cells were analyzed for viability using the MTS assay according to the manufactures protocol (Promega CellTiter 96® Cat.#G5421). […]

[5] = tested on: 661W cells; experiment: XF24 assay of stressor effects on respiratory capacity (OCR, FCCP response); format: cell-based, mouse; conditions: 661W cells treated with 1 μM IBMX for 20 min
[6] = tested on: rd1 photoreceptors; experiment: rd1 mouse retinal organ culture assay (retina-RPE explants, photoreceptor row count); format: cell-based

CNc1ccc2oc(C[C@H]3O[C@@]4(CC[C@H]3C)O[C@H]([C@H](C)C(=O)c3ccc[nH]3)[C@H](C)C[C@H]4C)nc2c1C(=O)O [A23187]
viability at 24 h, 1 μM [1]: 47% | mitochondrial capacity measured from the FCCP response [2]: significant loss of mitochondrial capacity

O=C(CC1(O)C(=O)N(CCc2ccccc2)c2ccccc21)c1cccnc1 (stereo not shown) [CB11b]
basal and maximal OCR (oxygen consumption rate) [3]: improvement of both basal and maximal OCR

O=C(CC1(O)C(=O)N(CCc2ccccc2)c2ccc(Cl)cc21)c1ccccn1 (stereo not shown) [CB11c]
basal and maximal OCR (oxygen consumption rate) [3]: improvement of both basal and maximal OCR

CCOC(=O)CN1C(=O)C(O)(CC(=O)c2ccccn2)c2ccccc21 (stereo not shown) [CB11d]
basal and maximal OCR (oxygen consumption rate) [3]: improvement of both basal and maximal OCR

COC(=O)c1ccccc1NC(=O)c1sc(-c2cccnc2)nc1C [CB12b]
basal and maximal OCR (oxygen consumption rate) [3]: improvement of both basal and maximal OCR

CC(=O)Nc1cccc(NC(=O)c2sc(-c3cccnc3)nc2C)c1 [CB12c]
basal and maximal OCR (oxygen consumption rate) [3]: improvement of both basal and maximal OCR

Cc1nc(-c2cccnc2)sc1C(=O)Nc1ccc(C(N)=O)cc1 [CB12d]
basal and maximal OCR (oxygen consumption rate) [3]: improvement of both basal and maximal OCR

CCCC[C@@H](C=O)NC(=O)[C@H](CC(C)C)NC(=O)[C@H](CC(C)C)NC(C)=O [Calpain Inhibitor I] (Ac-Leu-Leu-[Nle]-aldehyde)
reversal of ionophore A23187 effects on viability [4]: able to reverse ionophore effects

CC(C)Cn1c(=O)n(C)c(=O)c2[nH]cnc21 [IBMX, 3-Isobutyl-1-methyl xanthine]
effect on basal respiration rates [2]: little or no direct effect on basal respiration rates | basal and uncoupled OCR relative to untreated control ([2]; 600 μM IBMX): attenuates basal and uncoupled OCR | decrease in both basal and maximal (FCCP-uncoupled) respiratory capacity ([2]; 500-600 μM IBMX): ~50% | respiratory / mitochondrial capacity (FCCP-uncoupled OCR) [2]: diminished respiratory capacity compared to control; also recorded: same types of loss in mitochondrial capacity | loss in metabolic capacity as measured from the FCCP response [5]: ~50%

CCCC[C@@H](C=O)NC(=O)[C@H](CC(C)C)NC(=O)OCc1ccccc1 [calpeptin]
rows of photoreceptors (average) ([6]; rd1 mouse organ cultures exposed to 1 mM from P11 to P21): 3.3±0.3 rows of photoreceptors | rows of photoreceptors remaining at P21 ([6]; rd1 retina-RPE sandwich cultures P10 through P21, quantified from images): about 3.5 rows

C[n+]1ccc(-c2cc[n+](C)cc2)cc1 [paraquat]
effect on basal respiration rates [2]: little or no direct effect on basal respiration rates | respiratory / mitochondrial capacity (FCCP-uncoupled OCR) [2]: same types of loss in mitochondrial capacity

CC(C)(C)OO [tBuOOH, tert-butylhydroperoxide]
mitochondrial capacity measured from the FCCP response [2]: significant loss of mitochondrial capacity
